Results reported in patent US4623662A, “Antiatherosclerotic ureas and thioureas” (American Cyanamid Company, priority 1985, dated 1986).
Values joined by “and” are separate entries in the source; they are usually repeats but may differ in a detail not shown here. Equal values may be shown once. Read-outs that look alike come from different tables or passages of the source.

Assays:
[1] = target: T1, fatty acyl CoA:cholesterol acyl transferase (ACAT) (Rattus norvegicus, UniProt Q7TQM4); assay: Inhibition of ACAT from microsomes isolated from rat intestinal mucosal cells; format: biochemical
T1 construct: the enzyme was derived from microsomes isolated from rat intestinal mucosal cells; from tissue; host or cells: rat intestinal mucosal cells, microsomes
T1 sequence (Q7TQM4 1-524): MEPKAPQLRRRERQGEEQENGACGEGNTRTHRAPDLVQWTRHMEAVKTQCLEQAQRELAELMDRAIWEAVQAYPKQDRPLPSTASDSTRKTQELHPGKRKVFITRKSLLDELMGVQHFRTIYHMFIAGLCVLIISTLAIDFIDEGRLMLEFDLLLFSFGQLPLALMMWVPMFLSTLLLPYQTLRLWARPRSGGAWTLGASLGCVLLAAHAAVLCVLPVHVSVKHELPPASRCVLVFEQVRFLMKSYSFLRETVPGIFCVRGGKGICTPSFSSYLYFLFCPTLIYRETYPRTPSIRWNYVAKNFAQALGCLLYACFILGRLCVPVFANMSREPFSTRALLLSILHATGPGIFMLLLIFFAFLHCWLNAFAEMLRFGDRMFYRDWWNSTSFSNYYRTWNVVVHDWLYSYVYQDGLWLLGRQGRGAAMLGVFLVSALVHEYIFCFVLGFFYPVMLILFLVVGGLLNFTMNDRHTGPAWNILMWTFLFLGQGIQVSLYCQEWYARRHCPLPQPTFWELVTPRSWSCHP
Procedure: The compounds were tested for their ability to inhibit ACAT according to the following procedure: rat adrenals were homogenized in 0.2M monobasic potassium phosphate buffer, pH 7.4, and centrifuged at 1,000 times gravity for 15 minutes at 5° C. The supernatant, containing the microsomal fraction, served as the source of the cholesterol-esterifying enzyme, fatty acyl CoA:cholesterol acyl transferase (ACAT). A mixture comprising 50 parts of adrenal supernatant, 10 parts of bovine serum albumin (50 mg/ml), 3 parts of test compound (final concentration 5.2 μg/ml), and 500 parts of buffer was preincubated at 37° C. for 10 minutes. After treatment with 20 parts of oleoyl CoA (^14 C-0.4 μCi), the mixture was incubated at 37° C. for 10 minutes. A control mixture, omitting the test compound, was prepared and treated in the same manner. The lipids from the incubation mixture was extracted into an organic solvent and separated by thin-layer chromatography. The cholesteryl ester fraction was counted in a scintillation counter. This procedure is a modification of that described by Hashimoto, et al., Life Scie., 12 (Part II), 1-12 (1973).
The compounds of this invention were tested in vitro at several concentrations for their ability to inhibit the enzyme fatty acyl CoA:cholesterol acyl transferase (ACAT) using the hereinabove described procedure except that the enzyme was derived from microsomes isolated from rat intestinal mucosal cells rather than rat adrenal cells. The results of this test on representative compounds of this invention are given in Table III in terms of IC50 (μM), that concentration which produced 50% inhibition of the ACAT enzyme.

cholesterol absorption = assay: Inhibition of cholesterol absorption in rats fed 1% cholesterol:0.5% cholic acid diet; format: in vivo, male Sprague-Dawley rats; details: po, 336 h, rat, 2 weeks; for response vs control in vivo at 0.003 %: dose .003% of the diet; for response vs control in vivo at 0.01 %: dose .01% of the diet; for response vs control in vivo at 0.03 %: dose .03% of the diet
Summary of the method: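 Male Sprague-Dawley rats (150-170 g) fed 1% cholesterol:0.5% cholic acid diet for 2 weeks with compound at 0.001, 0.003, 0.01 or 0.03% of diet. Serum cholesterol measured enzymatically; liver cholesterol from saponified large-lobe sample after petroleum ether extraction. Liver and serum sterol expressed as percent of untreated controls.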

[2] = target: T2, fatty acyl CoA: cholesterol acyl transferase (ACAT) (Rattus norvegicus, UniProt O70536); assay: Inhibition of fatty acyl CoA:cholesterol acyl transferase (ACAT), rat adrenal enzyme; format: biochemical
T2 construct: The supernatant, containing the microsomal fraction, served as the source of the cholesterol-esterifying enzyme; from tissue; host or cells: rat adrenals, supernatant of 1,000 x g centrifugation containing the microsomal fraction
T2 sequence (O70536 1-545): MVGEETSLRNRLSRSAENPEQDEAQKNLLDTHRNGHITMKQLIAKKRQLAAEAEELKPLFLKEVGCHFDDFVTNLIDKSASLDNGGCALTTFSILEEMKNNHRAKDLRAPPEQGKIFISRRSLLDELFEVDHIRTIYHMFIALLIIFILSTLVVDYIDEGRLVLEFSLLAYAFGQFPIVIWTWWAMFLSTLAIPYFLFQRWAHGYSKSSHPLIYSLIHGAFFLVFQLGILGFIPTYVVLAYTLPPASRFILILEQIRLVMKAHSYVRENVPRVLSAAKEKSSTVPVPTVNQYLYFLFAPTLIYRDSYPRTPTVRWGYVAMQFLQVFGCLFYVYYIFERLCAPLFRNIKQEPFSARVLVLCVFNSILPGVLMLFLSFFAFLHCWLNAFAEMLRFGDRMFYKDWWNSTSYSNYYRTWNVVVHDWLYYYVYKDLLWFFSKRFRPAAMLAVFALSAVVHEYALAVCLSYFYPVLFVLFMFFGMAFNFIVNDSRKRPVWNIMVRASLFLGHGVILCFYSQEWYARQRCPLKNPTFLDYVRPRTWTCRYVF
Summary of the method: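 Enzyme source was the microsomal supernatant of rat adrenal homogenate (0.2M potassium phosphate, pH 7.4) with BSA, preincubated with compound (5.2 μg/ml final for single-point) for 10 min at 37° C. Then [14C]oleoyl CoA added, 10 min at 37° C. TLC-separated cholesteryl ester was counted; percent inhibition versus control, IC50 from several concentrations.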

[3] = read-out: LS (liver sterol), percentage of control values
[4] = read-out: SS (serum sterol), percentage of control values
[5] = rat adrenal ACAT, final concentration 5.2 μg/ml, read-out: % Inhibition

| IC50 [1] [nM] | Structure (SMILES) | response vs control in vivo at 0.03 % (cholesterol absorption; [3]) [%] | response vs control in vivo at 0.03 % (cholesterol absorption; [4]) [%] | other results |
| --- | --- | --- | --- | --- |
| 180 | CCCCCCCN(Cc1ccc(COCCC(C)C)cc1)C(=O)Nc1c(F)cc(F)cc1F [1-(n-Heptyl)-1-[4-(isopentyloxymethyl)benzyl]-3-(2,4,6-trifluorophenyl)urea] | – | – | response vs control in vivo at 0.001 % (cholesterol absorption; dose .001% of the diet, read-out: LS (liver sterol), percentage of control values): 75% |
| 130 | CCCCCCCN(Cc1ccc(COCCC(C)C)cc1)C(=O)Nc1c(C)cc(Cl)cc1C [1-(n-Heptyl)-1-[4-(isopentyloxymethyl)benzyl]-3-(4-chloro-2,6-dimethylphenyl)urea] | – | – | response vs control in vivo at 0.003 % (cholesterol absorption; [3]): 47% |
| 330 | CCCCCCCN(Cc1ccc(COCCC(C)C)cc1)C(=O)Nc1ccc(F)cc1F [1-(n-Heptyl)-1-[4-(isopentyloxymethyl)benzyl]-3-(2,4-difluorophenyl)urea] | – | – | response vs control in vivo at 0.01 % (cholesterol absorption; [3]): 60% |
| 24000 | CCCCCCCN(Cc1ccc(CC(=O)O)cc1)C(=O)Nc1ccc(F)cc1F [1-(n-Heptyl)-1-[4-(carboxymethyl)benzyl]-3-(2,4-difluorophenyl)urea] | – | – | – |
| 200 | CCCCCCCN(Cc1ccc(CO)cc1)C(=O)Nc1ccc(F)cc1F [1-(n-Heptyl)-1-[4-(hydroxymethyl)benzyl]-3-(2,4-difluorophenyl)urea] | – | – | response vs control in vivo at 0.003 % (cholesterol absorption; [3]): 81% |
| 210 | CCCCCCCN(Cc1ccc(CCSC(C)C)cc1)C(=O)Nc1ccc(F)cc1F [1-(n-Heptyl)-1-[4-(2-isopropylthioethyl)benzyl]-3-(2,4-difluorophenyl)urea] | – | – | response vs control in vivo at 0.003 % (cholesterol absorption; [3]): 72% |
| 220 | CCCCCCCN(Cc1ccc(CC[S+]([O-])C(C)C)cc1)C(=O)Nc1ccc(F)cc1F (stereo not drawn) [1-(n-Heptyl)-1-[4-(2-isopropylsulfinylethyl)benzyl]-3-(2,4-difluorophenyl)urea] | – | – | response vs control in vivo at 0.003 % (cholesterol absorption; [3]): 84% |
| 1750 | CCCCCCCN(Cc1ccc(CC(=O)OC)cc1)C(=O)Nc1ccc(F)cc1F [1-(n-Heptyl)-1-[4-(carbomethoxymethyl)benzyl]-3-(2,4-difluorophenyl)urea] | – | – | – |
| 1020 | CCCCCCCN(Cc1ccc(CCCC(=O)O)cc1)C(=O)Nc1c(C)cc(Cl)cc1C [1-(n-Heptyl)-1-[4-(3-carboxypropyl)benzyl]-3-(4-chloro-2,6-dimethylphenyl)urea] | – | – | IC50 ([2]; rat adrenal ACAT, several concentrations): 7220 nM |
| 3270 | CCCCCCCN(Cc1ccc(CCCCSC(C)C)cc1)C(=O)Nc1ccc(F)cc1F [1-(n-Heptyl)-1-[4-(4-isopropylthiobutyl)benzyl]-3-(2,4-difluorophenyl)urea] | – | – | – |
| 20 | CCCCCCCN(Cc1ccc(CC(C)C(C)CC)cc1)C(=O)Nc1c(C)cc(Cl)cc1C (stereo not drawn) [1-(n-Heptyl)-1-[4-(2,3-dimethylpentyl)benzyl]-3-(4-chloro-2,6-dimethylphenyl)urea] | – | – | response vs control in vivo at 0.01 % (cholesterol absorption; [3]): 40%; response vs control in vivo at 0.01 % (cholesterol absorption; [4]): 43% |
| – | CCCCCCCN(Cc1ccc(OCCCC)cc1)C(=O)Nc1ccc(C)cc1C [1-(n-Heptyl)-1-(4-butyloxybenzyl)-3-(2,4-dimethylphenyl)urea] | 22 | 26 | inhibition at 5.2 µg/mL [2, 5]: 94.6% |
| – | CCCCCCCN(CCc1ccccc1)C(=O)Nc1ccc(F)cc1F [1-(n-Heptyl)-1-(2-phenylethyl)-3-(2,4-difluorophenyl)urea] | 57 | 59 | inhibition at 5.2 µg/mL [2, 5]: 94.1% |
| – | CCCCCCCN(CCc1ccccc1)C(=O)Nc1ccc(C)cc1C [1-(n-Heptyl)-1-(2-phenylethyl)-3-(2,4-dimethylphenyl)urea] | 36 | 57 | inhibition at 5.2 µg/mL [2, 5]: 95.7% |
| – | O=C(Nc1ccc(F)cc1F)N(Cc1ccccc1)C(Cc1ccccc1)c1ccc(OCc2ccccc2)cc1 (stereo not drawn) [1-Benzyl-1-[2-phenyl-1-(4-benzyloxyphenyl)ethyl]-3-(2,4-difluorophenyl)urea] | 27 | 48 | % Inhibition ([2]; rat adrenal ACAT, final concentration 5.2 μg/ml): 70.0% and 91.0% |
| – | CCCCc1ccc(CN(CCC(C)(C)C)C(=O)Nc2c(C)cc(Cl)cc2C)cc1 [1-(3,3-Dimethylbutyl)-1-[4-(n-butyl)benzyl]-3-(4-chloro-2,6-dimethylphenyl)urea] | 12 | 28 | inhibition at 5.2 µg/mL [2]: 90% |
| – | CC(C)(C)CCN(Cc1ccc(CC(C)(C)C)cc1)C(=O)Nc1c(Cl)cc(Cl)cc1Cl [1-(3,3-Dimethylbutyl)-1-[4-(2,2-dimethylpropyl)benzyl]-3-(2,4,6-trichlorophenyl)urea] | 15 | 32 | inhibition at 5.2 µg/mL [2]: 90% |
| – | CCCCN(Cc1ccccc1)C(=O)Nc1c(C)cccc1C [1-Benzyl-1-( -n-butyl)-3-(2,6-dimethylphenyl)urea] | 91 | 68 | inhibition at 5.2 µg/mL [2, 5]: 83.1% |
| – | CCCCCCCN(Cc1ccc(OCCCC)cc1)C(=O)Nc1cc(C)c(C)cc1C [1-(n-Heptyl)-1-(4-butyloxybenzyl)-3-(2,4,5-trimethylphenyl)urea] | 17 | 32 | inhibition at 5.2 µg/mL [2, 5]: 95.6% |
| 140 | CCCCCCCN(Cc1ccc(CC2CCCC2)cc1)C(=O)Nc1ccc(F)cc1F [1-(n-Heptyl)-1-[4-(4-cyclopentylmethyl)benzyl]-3-(2,4-difluorophenyl)urea] | – | – | response vs control in vivo at 0.01 % (cholesterol absorption; [3]): 80% |

| Structure (SMILES) | IC50 [1] [nM] | response vs control in vivo at 0.03 % (cholesterol absorption; [3]) [%] | response vs control in vivo at 0.03 % (cholesterol absorption; [4]) [%] | other results |
| --- | --- | --- | --- | --- |
| CCCCCCCN(Cc1ccc(COC(C)=O)cc1)C(=O)Nc1ccc(F)cc1F [1-(n-Heptyl)-1-[4-(acetoxymethyl)benzyl]-3-(2,4-difluorophenyl)urea] | 120 | – | – | response vs control in vivo at 0.01 % (cholesterol absorption; [3]): 70% |
